Assay results published in patent US10941399B2, “Methods and compositions for gene-specific demethylation by DNA methyltransferase (DNMT)-RNA interaction” (Beth Israel Deaconess Medical Center, Inc., priority 2011, dated 2021).

Target: DNMT1 (Homo sapiens, UniProt P26358)
Assay: Nuclear RNA immunoprecipitation (RIP) with anti-DNMT1 antibody
Type: binding
Parameters: endogenous in cells; host or cells: HL-60 cells (nuclei); Similar results were obtained in U937 cells
Conditions: HL-60 cells
Description: Nuclear RNA immunoprecipitation (nRIP): nRIP performed as described by Ebralidze et al. (Science 303:383-387, 2004) with some modifications. Crosslinked nuclei were collected as follows: About 60×10^6 HL-60 cells were crosslinked with 1% formaldehyde (formaldehyde solution, freshly made 50 mM HEPES-KOH; 100 mM NaCl; 1 mM EDTA; 0.5 mM EGTA; 11% formaldehyde) for 10 minutes at room temperature. Crosslinking was halted by adding 1/10th volume of 2.66 M Glycine, kept for 5 minutes at room temperature and 10 minutes on ice. Cell pellets were washed twice with ice-cold PBS (freshly supplemented with 1 mM PMSF) and then resuspended in cell lysis buffer (volume=4 mL, 1× Buffer of 10 mM Tris pH 7.4; 10 mM NaCl; 0.5% NP-40, freshly supplemented with protease inhibitors (protease inhibitors cocktail: Roche Applied Science, Cat. No. 1836153, 1 tablet with 375 μL H2O; add as ×100), 1 mM PMSF, and 2 mM vanadyl complex (NEB)). Cells were incubated at 0° C. for 10-15 minutes and homogenized by Dounce (10 strokes pestle A and 40 strokes pestle B). Nuclei were recovered by centrifugation at 2,000 rpm for 10 minutes at 4° C. Nuclei were resuspended in 3 ml 1× Resuspension Buffer (50 mM HEPES-NaOH, pH 7.4; 10 mM MgCl2) supplemented with 1 mM PMSF and 2 mM vanadyl complex. […]

Sequence of DNMT1 (P26358 whole entry): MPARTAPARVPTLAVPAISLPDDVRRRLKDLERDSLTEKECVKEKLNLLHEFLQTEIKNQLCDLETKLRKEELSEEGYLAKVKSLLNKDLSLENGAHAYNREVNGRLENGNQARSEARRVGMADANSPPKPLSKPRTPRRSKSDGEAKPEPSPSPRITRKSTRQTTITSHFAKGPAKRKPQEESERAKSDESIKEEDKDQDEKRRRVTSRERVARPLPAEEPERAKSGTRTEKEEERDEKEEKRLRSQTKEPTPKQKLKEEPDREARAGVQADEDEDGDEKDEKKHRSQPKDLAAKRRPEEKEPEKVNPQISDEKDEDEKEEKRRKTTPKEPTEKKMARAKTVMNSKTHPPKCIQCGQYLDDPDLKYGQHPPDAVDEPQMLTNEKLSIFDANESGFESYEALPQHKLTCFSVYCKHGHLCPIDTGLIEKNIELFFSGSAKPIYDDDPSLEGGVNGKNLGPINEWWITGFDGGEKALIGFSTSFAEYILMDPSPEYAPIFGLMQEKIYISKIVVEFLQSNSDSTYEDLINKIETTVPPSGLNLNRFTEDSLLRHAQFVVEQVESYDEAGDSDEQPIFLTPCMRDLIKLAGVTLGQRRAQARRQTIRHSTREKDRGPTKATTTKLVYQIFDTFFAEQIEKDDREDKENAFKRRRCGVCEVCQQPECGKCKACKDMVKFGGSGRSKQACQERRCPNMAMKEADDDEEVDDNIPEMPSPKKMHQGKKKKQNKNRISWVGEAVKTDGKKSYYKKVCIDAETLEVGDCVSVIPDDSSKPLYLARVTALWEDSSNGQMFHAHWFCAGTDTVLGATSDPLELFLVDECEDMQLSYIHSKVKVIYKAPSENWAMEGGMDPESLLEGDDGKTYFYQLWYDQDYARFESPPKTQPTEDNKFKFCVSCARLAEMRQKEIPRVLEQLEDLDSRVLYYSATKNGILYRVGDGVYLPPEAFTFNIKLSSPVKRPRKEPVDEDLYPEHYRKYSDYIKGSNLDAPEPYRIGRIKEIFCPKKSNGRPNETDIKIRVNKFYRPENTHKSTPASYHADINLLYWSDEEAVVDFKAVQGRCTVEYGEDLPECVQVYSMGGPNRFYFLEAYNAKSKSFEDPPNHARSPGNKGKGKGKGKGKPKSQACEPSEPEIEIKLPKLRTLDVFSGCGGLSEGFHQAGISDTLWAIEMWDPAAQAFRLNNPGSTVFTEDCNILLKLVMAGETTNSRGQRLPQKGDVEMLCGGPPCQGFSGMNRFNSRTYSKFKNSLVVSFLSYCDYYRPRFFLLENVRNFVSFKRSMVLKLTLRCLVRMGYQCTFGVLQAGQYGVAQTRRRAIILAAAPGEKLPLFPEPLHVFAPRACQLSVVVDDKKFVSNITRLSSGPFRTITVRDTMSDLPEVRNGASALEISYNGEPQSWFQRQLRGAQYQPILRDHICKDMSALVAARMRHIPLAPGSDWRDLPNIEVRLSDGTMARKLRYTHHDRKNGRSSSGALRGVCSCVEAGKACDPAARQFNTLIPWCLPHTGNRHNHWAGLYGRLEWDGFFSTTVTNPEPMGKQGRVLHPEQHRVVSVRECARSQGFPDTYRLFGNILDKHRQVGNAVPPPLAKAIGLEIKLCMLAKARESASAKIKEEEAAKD

## ecRNA: endogenous ~5 kb non-polyadenylated nuclear extra-coding transcript of the C/EBPa locus (SEQ ID NO:8)
  enrichment in DNMT1-RNA precipitates compared to IgG control: > 60 fold
